Article PMC7179685, “Iminosugars With Endoplasmic Reticulum α-Glucosidase Inhibitor Activity Inhibit ZIKV Replication and Reverse Cytopathogenicity in vitro” (Frontiers in Microbiology, 2020)

Assays:
[1] = test system: CHME3 cells; test: Cytotoxicity, MTS cell viability assay in CHME3 cells; format: cell-based, Human; conditions: 72 h post treatment; for metabolic activity (cytotoxicity, MTS): 1000 μM; for metabolic activity compared to vehicle control (cytotoxicity, MTS): 0.01 to 100 μM
Protocol: (§1) A cell viability assay was used to evaluate both the cytotoxicity and antiviral abilities of the iminosugars with appropriate controls as previously described ([Fletcher et al., 2000]) using the CellTiter 96® AQueous One Solution Cell Proliferation Assay (MTS, Promega, Madison, WI, United States) following the manufacturer’s instructions. At 60–70% confluence, Vero cells and CHME3 cells were pretreated with iminosugars for 2 h and then infected with ZIKV according to the plate layout shown in Supplementary Figure S1. Four biological replicates were used to assess cytotoxicity, and six replicates were used to assess the antiviral ability of each iminosugar with concentrations ranging from 0.01 to 1000 μM or vehicle (sterile nuclease-free water). Cells treated with iminosugars or vehicle control were infected with ZIKV strain PRVABC59, IBH30656 or MEX 2-81 at a multiplicity of infection (MOI) of 1 in infection medium consisting of DMEM supplemented with 5% FBS and 1% antibiotic/antimycotic solution. The CHME3 infection medium was additionally supplemented with 0.1% non-essential amino acids (NEAA). At 72 h post-infection (hpi), MTS solution was added to the wells, and after 2 h, the optical density was measured at 490 nm using a microplate reader (ELx800; BioTek, Winooski, VT, United States). Previous studies have shown that ER α-glucosidase inhibitor, Celgosivir prevents DENV secretion in primary human macrophages with an EC50 of 5 μM and has CC50 greater than 1000 μM in MBDK cells ([Whitby et al., 2004]; [Sung et al., 2016]).

[2] = test system: ZIKV strain PRVABC59; test: Antiviral screening assay (MTS cell viability after infection) in CHME3 cells; format: cell-based, Zika virus; conditions: for ZIKV-induced cell death (MTS): PRVABC59, MOI 1, 72 hpi
Protocol: as §1

[3] = test system: ZIKV strain PRVABC59; test: Antiviral screening assay (MTS cell viability after infection) in Vero cells; format: cell-based, Zika virus; conditions: for ZIKV-induced cell death (MTS): Vero cells, PRVABC59, MOI 1, 72 hpi
Protocol: as §1

[4] = test system: ZIKV PRVABC59; test: Virus yield reduction assay (qRT-PCR and TCID50) in CHME3 cells; format: cell-based, Zika virus; conditions: 1 μM, 48 hpi
Protocol: (§2) Zika virus yield reduction following treatment with iminosugars was assessed by measuring the NS1 gene by a previously described quantitative reverse transcription-polymerase chain reaction (qRT-PCR) and infectious virus titration in Vero cells ([Reed and Muench, 1938]; [Goebel et al., 2016]). Vero and CHME3 cells pre-treated 1 μM of castanospermine, celgosivir or DNJ for 2 h and then were infected with PRVABC59 either at MOI 0.5 or 5 in infection medium. After 2 h of incubation with the virus, medium from cells was removed, cells were washed with phosphate buffered saline, and fresh infection medium containing 1 μM of castanospermine, celgosivir or DNJ was added to the wells. At 48 and 72 hpi, culture supernatants were harvested and stored at −80°C until use for viral RNA extraction. Viral RNA was extracted from 50 μl of sample using the MagMAX-96 Viral RNA Isolation Kit (Applied Biosystems, Foster City, CA, United States) on a MagMAX Express-96 Deep Well Magnetic Particle Processor (Applied Biosystems). The amount of ZIKV genomic RNA was measured by qRT-PCR using SuperScript® III Platinum One-Step qRT-PCR Kit on a 7500 Fast Real-Time PCR System (Applied Biosystems). The primers (F: 5′-[…]-3′, R: 5′-[…]-3′) and probe sequence (5′- FAM-TGCCCAACA/ZEN/CAAGGTGAAGCC TACCT-BHQ) were purchased from Integrated DNA Technologies (IDT; Coralville, IA, United States), and the qRT-PCR cycling conditions included an initial cDNA synthesis for 30 min at 50°C, followed by 2 min at 95°C and 45 cycles of 2-step cycling at 95°C for 15 s, then 55°C for 30 s ([Goebel et al., 2016]). The ZIKV copy numbers were quantified using a standard curve generated with serial dilutions of positive control ZIKV RNA standards derived from ZIKV with known TCID50 value. Cell culture supernatants were titrated for the infectious virus in Vero cells, and titer was expressed as TCID50 calculated using the Reed-Muench method ([Reed and Muench, 1938]).

[5] = test system: Vero cells; test: Cytotoxicity, MTS cell viability assay in Vero cells; format: cell-based, African green monkey; conditions: 72 h post treatment; for metabolic activity (cytotoxicity, MTS): 1000 μM; for metabolic activity compared to vehicle control (cytotoxicity, MTS): 0.01 to 100 μM
Protocol: as §1

[6] = test system: ZIKV PRVABC59; test: Virus yield reduction assay (qRT-PCR and TCID50) in Vero cells; format: cell-based, Zika virus; conditions: 1 μM, 48 hpi; for PRVABC59 ZIKV RNA in supernatant compared with vehicle control (qRT-PCR): MOI 0.5 and MOI 5, p ≤ 0.0318; for infectious PRVABC59 ZIKV titers (TCID50): MOI 0.5 and MOI 5, p ≤ 0.0433
Protocol: as §2

[7] = test system: MBDK cells; set-up: method as in Whitby et al., 2004; Sung et al., 2016; conditions: ref Whitby et al., 2004, Sung et al., 2016; cited from earlier work
[8] = test system: CHME3 cells; test: Measurement of necrosis, LDH assay in ZIKV-infected CHME3 cells; format: cell-based, Human; conditions: PRVABC59, MOI 1, 72 hpi
Protocol: Cell necrosis was evaluated by measuring the levels of lactate dehydrogenase (LDH) in cells using the CytoTox 96 Non-Radioactive Cytotoxicity Assay (Promega) following the manufacturer’s instructions. LDH is a soluble stable cytosolic enzyme present in many cell types which is rapidly released into the cell culture medium following disruption of the plasma membrane. LDH is a widely used marker to measure cellular cytotoxicity and necrosis. CHME3 cells in 96-well cell culture plates were pre-treated with celgosivir for 2 h and then infected with PRVABC59 at MOI 1 in the presence of celgosivir at concentrations ranging from 0.01 to 1000 μM or vehicle. Controls for media color, cells, and virus were included. At 48 and 72 hpi, 50 μl of supernatant from each well was transferred into a new 96-well plate, and 50 μl of CytoTox 96® Reagent was added to each well. After incubating at room temperature in the dark, 50 μl of Stop Solution was added to each well, and the optical density was measured at 490 nm using an ELx800 microplate reader (BioTek).

[9] = test system: MDA5, RIG-I, MX1, IRF7, IFNβ, ISG15; test: Antiviral gene expression by qRT-PCR in CHME3 cells; format: cell-based, Human; conditions: 1 μM
Protocol: CHME3 cells grown in 6-well plates and at 70% confluency were infected with PRVABC59 at MOI 1. After pre-incubation with the virus for 2 h, medium from cells was removed, cells were washed with PBS, and fresh infection medium containing 1 μM celgosivir was added. Negative control wells were added with infection medium without celgosivir. Three wells were used for each treatment. At 24, 48, and 72 h, total RNA was extracted from cells using the RNeasy Plus Minikit (Qiagen, Hilden, Germany) according to the manufacturer’s protocol. Complementary DNA was synthesized from 1 μg of total RNA using 4 μl of qScript cDNA SuperMix (5x) (QuantaBio, Beverly, MA, United States). qRT-PCR was performed on a 7500 Fast Real-Time PCR System (Applied Biosystems) using PowerSybr Green PCR MasterMix (Applied Biosystems) according to the manufacturer’s instructions. Expression of retinoic acid-inducible gene 1 (RIGI), melanoma differentiation-associated protein 5 (MDA5), interferon regulatory factor 7 (IRF7), interferon β (IFNβ), interferon-induced GTP-binding protein (MX1) and interferon-stimulated gene 15 (ISG15) were quantified, and hypoxanthine phosphoribosyltransferase 1 (HPRT1) was used as a house-keeping gene for data normalization. All primers used were previously published and were supplied by IDT ([Megiorni et al., 2005]; [Kim et al., 2008]; [Nasirudeen et al., 2011]; [Muramatsu et al., 2014]; [Seng et al., 2014]; [Liu et al., 2015]; [Livingstone et al., 2015]).

[10] = test system: activated caspases 3 and 7; test: Measurement of apoptosis, Caspase-Glo 3/7 assay in ZIKV-infected CHME3 cells; format: cell-based, Human; conditions: PRVABC59, MOI 1, 0.01 to 1000 μM, 48 and 72 hpi
Protocol: Apoptotic cell death was evaluated by measuring the levels of active caspase 3 and 7 in cells using the Caspase-Glo® 3/7 Assay (Promega) following the manufacturer’s instructions. CHME3 cells in 96-well white-walled cell culture plates (Greiner Bio-One, Kremsmünster, Austria) were pre-treated with celgosivir for 2 h and then infected with PRVABC59 at MOI 1 in the presence of celgosivir at concentrations ranging from 0.01 to 1000 μM or vehicle. Controls for media color, cells, and virus were included. At 48 and 72 hpi, Caspase-Glo® Reagent was added, and after 30 min the luminescence of each sample was read five times using a Spark multimode microplate reader (TECAN, Männedorf, Switzerland) at an interval of 2 min for 15 s. The average of the five readings was used as the measurement for each biological replicate.

[11] = test system: DENV; set-up: method as in Whitby et al., 2004; Sung et al., 2016; conditions: primary human macrophages; ref Whitby et al., 2004; Sung et al., 2016; read-out: EC50, prevention of DENV secretion; cited from earlier work
[12] = test system: dengue virus (DENV); set-up: method as in Rathore et al., 2011; conditions: BHK-21 cells; MOI 0.3; ref Rathore et al., 2011; cited from earlier work

Row | SMILES | metabolic activity (cytotoxicity, MTS) [1] | metabolic activity compared to vehicle control (cytotoxicity, MTS) [1] | ZIKV-induced cell death (MTS) ([2]; CHME3 cells) | ZIKV-induced cell death (MTS) [3] | infectious PRVABC59 ZIKV titers (TCID50) ([4]; MOI 0.5) | infectious PRVABC59 ZIKV titers (TCID50) ([4]; MOI 5, p ≤ 0.0433) | metabolic activity (cytotoxicity, MTS) [5] | metabolic activity compared to vehicle control (cytotoxicity, MTS) [5] | PRVABC59 ZIKV RNA in supernatant compared with vehicle control (qRT-PCR) [6] | infectious PRVABC59 ZIKV titers (TCID50) [6] | further results
1 | O[C@H]1[C@H](O)[C@@H](O)CN2CC[C@H](O)[C@H]12 [castanospermine] | decrease in metabolic activity | No reduction in metabolic activity | reduce ZIKV-induced cell death | reduce ZIKV-induced cell death | not statistically significant | statistically significant reduction | decrease in metabolic activity | No reduction in metabolic activity | Significant reductions | statistically significant reduction | cell viability following ZIKV infection ([2]; CHME3 cells, MOI 1, 10 μM required): 90%; PRVABC59 ZIKV RNA in supernatant, reduction vs control cells (qRT-PCR) ([4]; MOI 5): not significant
2 | CCCC(=O)O[C@H]1CN2CC[C@H](O)[C@@H]2[C@@H](O)[C@@H]1O [celgosivir, 6-O-butanoyl castanospermine] | decrease in metabolic activity | No reduction in metabolic activity | reduce ZIKV-induced cell death | reduce ZIKV-induced cell death | statistically significant reduction | statistically significant reduction | decrease in metabolic activity | No reduction in metabolic activity | Significant reductions | statistically significant reduction | CC50 [7]: > 1 mM; viability at 0.01 µM ([2]; Zika virus, read-out: cell viability following ZIKV infection): > 90%; ZIKV-induced LDH activity (necrosis) [8]: reduced PRVABC59 ZIKV-induced LDH activity to levels equivalent to mock-infected cells; viability at 0.01 µM ([3]; Zika virus, Vero, read-out: cell viability following ZIKV infection): > 90%; decrease of IFNβ expression levels ([9]; PRVABC59 ZIKV-infected CHME3 cells, treated vs not treated, 48 hpi, p = 0.033): 27%; expression levels of MDA5, RIG-I, MX1, IRF7, and ISG15, treated vs vehicle-treated ([9]; PRVABC59 ZIKV-infected CHME3 cells, any timepoint (24, 48, 72 h)): not significantly different; decrease of IFNβ gene expression ([9]; mock-infected CHME3 cells, treated vs untreated, 48 hpi, statistically significant): 22%; level of IFNβ expression, treated vs untreated ([9]; mock-infected CHME3 cells, 72 hpi): similar; levels of activated caspases 3 and 7 in comparison to untreated infected cells [10]: did not significantly reduce; EC50 [11]: 5 µM; effectiveness against DENV relative to castanospermine [12]: 100 times
